Structures can show the parent of a compound that is named as a salt. Where two headings read alike, the source gives them in different places. *1 amine or outer side, *2 acyl side, *3 side chain or, on linkers, in order; H or OH if unused. Where a SMILES comes first, the peptide text is derived from it. Bridges are numbered along the chain shown (N, C = ends). Roman numbers before positions name the chains, in order. [ ]: non-standard residue; d: D form. Actinocin(9to1) = Cc1c2oc3c(C)ccc(C(=O)[*:1])c3nc-2c(C(=O)[*:2])c(N)c1=O; NMeV = CN[C@H](C(=O)O)C(C)C; Sar = CNCC(=O)O
Tests used:
Assay type in all cases: cell-based, rat
[1] = test system: fibrin-induced microglia activation; assay: Image-based assay of fibrin-induced microglia activation (HTS and dose response); settings: for IC50: read-out: fib_IC50; for inhibition at 10 µM: read-out: Fibrin % inhibition
[2] = test system: LPS-induced microglia activation; assay: Image-based assay of LPS-induced microglia activation (HTS and dose response)
[3] = test system: fibrin- and LPS-induced microglia activation; assay: cells
[4] = Rattus norvegicus, Microglia, Table 7
[5] = Rattus norvegicus, Microglia, Table 7; read-out: LPS_IC50
[6] = Table 7, fib = fibrin, LPS, tox = toxicity
[7] = Rattus norvegicus, Microglia, primary microglia HTS, fibrin stimulation, increased cell size (>800 μm^2) as marker of activation
[8] = Rattus norvegicus, Microglia, 48 h, primary microglia HTS, LPS stimulation; increased cell size (>800 μm^2) as marker of activation; read-out: LPS % inhibition
[9] = quadrant by fibrin and LPS inhibition in HTS of 1907 compounds
[10] = Rattus norvegicus, Microglia, 48 h, read-out: LPS % inhibition
[11] = Rattus norvegicus, Microglia, read-out: LPS % inhibition
[12] = classification by fibrin and LPS inhibition in HTS
[13] = primary microglia HTS, fibrin stimulation, compounds at 10 μM
[14] = primary microglia HTS, LPS stimulation, compounds at 10 μM
[15] = Hill slope of fibrin dose response, Table 7
[16] = Hill slope of LPS dose response; Table 7
[17] = HTS of 1907 compounds, quadrant by fibrin and LPS inhibition

COc1cc([C@@H]2c3cc4c(cc3[C@H](O)[C@H]3COC(=O)[C@H]23)OCO4)cc(OC)c1OC [Podofilox, reference compound]
IC50 [1, 4]: 14 nM | IC50 [2, 5]: 2 nM | Quadrant (FIG. 5b) ([3]; Table 2, screen at 10 μM): Q2 | Activity [3, 6]: fib/LPS

CN(C)c1ccc(O)c2c1C[C@H]1C[C@H]3[C@H](N(C)C)C(O)=C(C(N)=O)C(=O)[C@@]3(O)C(O)=C1C2=O [Minocycline]
inhibition at 10 µM [1, 7]: -6% | inhibition at 10 µM [2, 8]: 16% | Quadrant (FIG. 5b) [3, 9]: Q4

CC(C)(CO)[C@@H](O)C(=O)NCCC(=O)NCCSSCCNC(=O)CCNC(=O)[C@H](O)C(C)(C)CO [Pantethine]
inhibition at 10 µM ([1]; Rattus norvegicus, Microglia): -53% | inhibition at 10 µM [2, 10]: 7% | Quadrant (FIG. 5b) [3]: Q4

CCC[C@@H]1C[C@@H](C(=O)N[C@@H]([C@H]2O[C@H](SC)[C@H](O)[C@@H](O)[C@H]2O)[C@H](C)Cl)N(C)C1 [Clindamycin Hydrochloride]
inhibition at 10 µM ([1]; Rattus norvegicus, Microglia): -44% | inhibition at 10 µM [2, 11]: 7% | Quadrant (FIG. 5b) [3]: Q4

O=C(O)COCCN1CCN([C@H](c2ccccc2)c2ccc(Cl)cc2)CC1 [Levocetirizine Dihydrochloride]
inhibition at 10 µM ([1]; Rattus norvegicus, Microglia): -44% | inhibition at 10 µM [2, 10]: -2% | Quadrant (FIG. 5b) [3]: Q4

neomycin sulfate
fib specificity [1]: 2.2 | fib_HS [1]: −0.75 | IC50 [1]: 2300 nM | LPS specificity [2]: 0.5 | Activity [3]: fib/LPS

N.N.[Cl][Pt][Cl] [Cisplatin]
Fibrin % inhibition ([1]; primary HTS, 10 μM, fibrin-stimulated primary microglia): −13% | LPS % inhibition ([2]; primary HTS, 10 μM, LPS-stimulated primary microglia): 20% | Quadrant (FIG. 5b) ([3]; primary HTS, 10 μM): Q4

CC(N/C(=N\C#N)Nc1ccncc1)C(C)(C)C (centres unmarked) [Pinacidil]
inhibition at 10 µM ([1]; Rattus norvegicus, Microglia, primary microglia HTS, fibrin stimulation, cell size >800 μm2 as marker of activation): 15% | inhibition at 10 µM ([2]; Rattus norvegicus, Microglia, 48 h; read-out: LPS % inhibition): 26% | Quadrant (FIG. 5b) [3, 12]: Q4

CC(C)NCC(O)COc1cccc2ccccc12 (centres unmarked)
Fibrin % inhibition ([1]; 10 µM): −18% | inhibition at 10 µM [2, 11]: -5% | Quadrant (FIG. 5b) [3]: Q4

CNCCC(Oc1ccc(C(F)(F)F)cc1)c1ccccc1.Cl (centres unmarked) [Fluoxetine Hydrochloride, Fluoxetine]
Fibrin % inhibition [1]: 46% | LPS % inhibition [2]: 65% | Quadrant (FIG. 5b) [3]: Q1

CC(N)C(O)c1ccccc1 (centres unmarked) [Phenylpropanolamine]
inhibition at 10 µM ([1]; Rattus norvegicus, Microglia): -2% | inhibition at 10 µM [2, 10]: -6% | Quadrant (FIG. 5b) [3]: Q4

C#C[C@]1(O)CC[C@H]2[C@@H]3CCC4=CC(=O)CC[C@@H]4[C@H]3CC[C@@]21CC [Levonorgestrel]
inhibition at 10 µM ([1]; Rattus norvegicus, Microglia, primary microglia HTS, fibrin stimulation, activation = cell size >800 μm2): 16% | inhibition at 10 µM ([2]; Rattus norvegicus, Microglia, 48 h, primary microglia HTS, LPS stimulation, activation = cell size >800 μm2; read-out: LPS % inhibition): -13% | Quadrant (FIG. 5b) [3, 9]: Q4

O=C(O)c1nc2cc(Cl)c(Cl)cc2nc1O
IC50 [1, 4]: 2650 nM | IC50 [2, 5]: ≥ 5000 nM | Activity [3, 6]: fib/LPS

Oxolamine Citrate
Fibrin % inhibition [1]: −1% | LPS % inhibition [2]: 10% | Quadrant (FIG. 5b) [3]: Q4

Nc1nc2ccc(OC(F)(F)F)cc2s1 [Riluzole]
inhibition at 10 µM ([1]; Rattus norvegicus, Microglia): 0% | inhibition at 10 µM [2, 10]: 7% | Quadrant (FIG. 5b) [3]: Q4

Adipic Acid, Hexanedioic Acid
Fibrin % inhibition [1, 13]: −24% | LPS % inhibition [2, 14]: 8% | Quadrant (FIG. 5b) ([3]; quadrant by fibrin and LPS inhibition, HTS at 10 μM): Q4

C[C@@H]1CCC[C@H](C)N1NC(=O)c1ccc(Cl)c(S(N)(=O)=O)c1 [clopamide]
IC50 [1, 4]: 3 nM | IC50 [2, 5]: 2 nM | Activity [3, 6]: fib/LPS

Cc1nc(Nc2ncc(C(=O)Nc3c(C)cccc3Cl)s2)cc(N2CCN(CCO)CC2)n1 [Dasatinib]
inhibition at 10 µM [1, 7]: 109% | inhibition at 10 µM [2, 8]: 70% | Quadrant (FIG. 5b) [3, 9]: Q2

N=C(N)NCCN1CCCCCCC1 [Guanethidine]
inhibition at 10 µM ([1]; Rattus norvegicus, Microglia): -44% | inhibition at 10 µM [2, 10]: 12% | Quadrant (FIG. 5b) [3]: Q4

Cc1cnc(C(=O)NCCc2ccc(S(=O)(=O)NC(=O)NC3CCCCC3)cc2)cn1 [Glipizide]
inhibition at 10 µM ([1]; Rattus norvegicus, Microglia): 12% | inhibition at 10 µM [2, 10]: 18% | Quadrant (FIG. 5b) [3]: Q4

CCOP(=S)(OCC)Oc1ccc2c(C)c(Cl)c(=O)oc2c1 [Coumophos]
Fibrin % inhibition [1, 13]: −12% | LPS % inhibition [2, 14]: 16% | Quadrant (FIG. 5b) ([3]; classification by fibrin and LPS inhibition, HTS at 10 μM): Q4

C[C@]12CC[C@@H]3c4ccc(O)cc4CC[C@H]3[C@@H]1C[C@H](O)[C@@H]2O [Epiestriol]
inhibition at 10 µM ([1]; Rattus norvegicus, Microglia): -25% | inhibition at 10 µM [2, 11]: 6% | Quadrant (FIG. 5b) [3]: Q4

FluoromethoIone [reference compound]
fib_HS [1, 15]: −0.27 | fib specificity ([1]; Table 7): 1.0 | LPS_HS [2, 16]: 0.00 | LPS specificity ([2]; Table 7): 1.0 | Quadrant (FIG. 5b) ([3]; Table 2, screen at 10 μM): Q2 | Activity [3, 6]: fib/LPS

Nc1nc2nc[nH]c2c(=S)[nH]1 [Tioguanine]
inhibition at 10 µM ([1]; Rattus norvegicus, Microglia): 12% | inhibition at 10 µM [2, 11]: 18% | Quadrant (FIG. 5b) [3]: Q4

COc1cc2c(c(OC)c1OC)-c1ccc(=O)c(O)cc1[C@@H](NC(C)=O)CC2 [colchiceine]
IC50 [1, 4]: 625 nM | IC50 [2, 5]: 820 nM | Activity [3, 6]: fib/LPS

CN(C)CCOC(c1ccccc1)c1ccccc1 [Diphenhydramine]
inhibition at 10 µM ([1]; Rattus norvegicus, Microglia): -47% | inhibition at 10 µM [2, 11]: 15% | Quadrant (FIG. 5b) [3]: Q4

COc1cccc2c1C(=O)c1c(O)c3c(c(O)c1C2=O)C[C@@](O)(C(=O)CO)C[C@@H]3O[C@H]1C[C@H](N)[C@H](O)[C@H](C)O1 [Doxorubicin]
inhibition at 10 µM [1, 7]: 106% | inhibition at 10 µM [2, 8]: 108% | Quadrant (FIG. 5b) [3, 9]: Q2

O=C1O[C@H]([C@@H](O)CO)C(O)=C1O [Vitamin C]
Fibrin % inhibition ([1]; primary microglia HTS, 10 μM, fibrin-stimulated, cell size >800 μm^2 as marker of activation): −28% | LPS % inhibition ([2]; primary microglia HTS, 10 μM, LPS-stimulated, cell size >800 μm^2 as marker of activation): 18% | Quadrant (FIG. 5b) [3, 17]: Q4

Cc1c2oc3c(C)ccc(C(=O)N[C@@H]4C(=O)N[C@H](C(C)C)C(=O)N5CCC[C@H]5C(=O)N(C)CC(=O)N(C)[C@@H](C(C)C)C(=O)O[C@@H]4C)c3nc-2c(C(=O)N[C@@H]2C(=O)N[C@H](C(C)C)C(=O)N3CCC[C@H]3C(=O)N(C)CC(=O)N(C)[C@@H](C(C)C)C(=O)O[C@@H]2C)c(N)c1=O [Dactinomycin] (I: T[dV]P[Sar][NMeV] / II: T[dV]P[Sar][NMeV]; ester I:1-I:C, II:1-II:C; linker I:N-II:N via Actinocin(9to1))
inhibition at 10 µM [1, 7]: 106% | inhibition at 10 µM [2, 8]: 106% | Quadrant (FIG. 5b) [3, 9]: Q2

Spiramycin
Fibrin % inhibition ([1]; primary microglia HTS, fibrin stimulation, cell size >800 μm2 as marker of activation): 17% | LPS % inhibition [2]: 14% | Quadrant (FIG. 5b) [3, 12]: Q4

CC(=O)OCC(=O)[C@@]1(O)CC[C@H]2[C@@H]3C[C@H](C)C4=CC(=O)C=C[C@]4(C)[C@H]3[C@@H](O)C[C@@]21C [6alpha-methylprednisolone acetate]
fib specificity [1]: 1.0 | fib_HS [1]: −0.26 | LPS specificity [2]: 1.0 | LPS_HS [2]: −0.40 | Activity [3]: fib/LPS

C=C[C@@]1(C)CC(=O)[C@]2(O)[C@@]3(C)[C@@H](O)CCC(C)(C)[C@@H]3[C@H](O)[C@H](OC(C)=O)[C@@]2(C)O1 [colforsin]
IC50 [1, 4]: 2080 nM | IC50 [2, 5]: 1350 nM | Activity [3, 6]: fib/LPS

CC(C)n1c(/C=C/C(O)CC(O)CC(=O)O)c(-c2ccc(F)cc2)c2ccccc21 (centres unmarked) [Fluvastatin]
inhibition at 10 µM [1, 7]: 110% | inhibition at 10 µM [2, 8]: 101% | Quadrant (FIG. 5b) [3, 9]: Q2

O=C(CCCN1CC=C(n2c(=O)[nH]c3ccccc32)CC1)c1ccc(F)cc1 [Droperidol]
inhibition at 10 µM ([1]; Rattus norvegicus, Microglia): -3% | inhibition at 10 µM [2, 11]: 20% | Quadrant (FIG. 5b) [3]: Q4

CCN(CC)CC(=O)Nc1c(C)cccc1C [Lidocaine]
inhibition at 10 µM ([1]; Rattus norvegicus, Microglia): -23% | inhibition at 10 µM [2, 10]: 8% | Quadrant (FIG. 5b) [3]: Q4

podophyllotoxin acetate
fib_HS [1, 15]: −1.10 | fib specificity ([1]; Table 7): 0.5 | LPS_HS [2, 16]: −0.87 | LPS specificity ([2]; Table 7): 1.8 | IC50 ([2]; Table 7; read-out: LPS_IC50): 12 nM | Activity [3, 6]: fib/LPS

CCC(=O)O[C@H]1CC[C@H]2[C@@H]3CCC4=CC(=O)CC[C@]4(C)[C@H]3CC[C@]12C [Testosterone Propionate]
inhibition at 10 µM ([1]; Rattus norvegicus, Microglia, primary microglia HTS, 10 μM, fibrin-stimulated, cell size >800 μm^2 as marker of activation): 21% | inhibition at 10 µM ([2]; Rattus norvegicus, Microglia, primary microglia HTS, 10 μM, LPS-stimulated, cell size >800 μm^2 as marker of activation; read-out: LPS % inhibition): 8% | Quadrant (FIG. 5b) [3, 17]: Q4

O=C1C=C2CC3(O)COc4cc(O)ccc4C3=C2C=C1O (centres unmarked) [brazilein]
IC50 [1, 4]: 1470 nM | IC50 [2, 5]: 2170 nM | Activity [3, 6]: fib/LPS

C#CC1(O)CC[C@H]2[C@@H]3CCC4=CC(=O)CC[C@@H]4[C@H]3CC[C@@]21CC (some centres unmarked) [Norgestrel]
inhibition at 10 µM [1, 7]: 4% | inhibition at 10 µM [2, 8]: 22% | Quadrant (FIG. 5b) [3, 9]: Q4

Cc1cc(NS(=O)(=O)c2ccc(N)cc2)no1 [Sulfamethoxazole]
inhibition at 10 µM ([1]; Rattus norvegicus, Microglia): -17% | inhibition at 10 µM [2, 11]: 17% | Quadrant (FIG. 5b) [3]: Q4

CS(=O)(=O)Nc1ccc([N+](=O)[O-])cc1Oc1ccccc1 [Nimesulide]
inhibition at 10 µM ([1]; Rattus norvegicus, Microglia): -19% | inhibition at 10 µM [2, 10]: 13% | Quadrant (FIG. 5b) [3]: Q4
